Experiments:
[1] = test system: late watergrass; assay: Test Example 1: herbicidal activity, application before weed generation under submerged conditions (Table 16, symbol A); assay type: in vivo, late watergrass (Echinochloa oryzicola); conditions: for Herbicidal effect, A: late watergrass: amount of applied herbicide 320 g/ha
Outline: (§1)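 Alluvial soil was flooded to 4 cm depth, weed seeds were sown mixed and 2.5-leaf rice seedlings were transplanted. On sowing day, the compound's emulsion, diluted in water to a set dose, was applied to the water surface. Plants grew at 25–30 °C and were scored 0–5 after three weeks.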

[2] = test system: Japanese bulrush; assay: Test Example 1: herbicidal activity, application before weed generation under submerged conditions (Table 16, symbol B); assay type: in vivo, Japanese bulrush (Schoenoplectus juncoides); conditions: for Herbicidal effect, B: Japanese bulrush: amount of applied herbicide 320 g/ha
Outline: as §1

[3] = test system: oval-leafed pondweed; assay: Test Example 1: herbicidal activity, application before weed generation under submerged conditions (Table 16, symbol C); assay type: in vivo, oval-leafed pondweed (Monochoria vaginalis); conditions: for Herbicidal effect, C: oval-leafed pondweed: amount of applied herbicide 320 g/ha
Outline: as §1

[4] = test system: late watergrass; assay: Test Example 2: herbicidal activity, application during weed generation under submerged conditions (Table 17, symbol A); assay type: in vivo, late watergrass (Echinochloa oryzicola); conditions: AAH 320 g/ha; application during weed generation, submerged conditions
Outline: (§2)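 Wagner pot, alluvial soil, 4 cm flood; mixed sowing of all species; greenhouse 25° C.–30° C. Emulsifiable formulation, water-diluted to predetermined dose, applied to paddy water at 1–2 leaf stage. Effect rated at 3 wk using the earlier test's scoring criteria.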

[5] = test system: Japanese bulrush; assay: Test Example 2: herbicidal activity, application during weed generation under submerged conditions (Table 17, symbol B); assay type: in vivo, Japanese bulrush (Schoenoplectus juncoides); conditions: AAH 320 g/ha; application during weed generation, submerged conditions
Outline: as §2

[6] = test system: oval-leafed pondweed; assay: Test Example 2: herbicidal activity, application during weed generation under submerged conditions (Table 17, symbol C); assay type: in vivo, oval-leafed pondweed (Monochoria vaginalis); conditions: AAH 320 g/ha; application during weed generation, submerged conditions
Outline: as §2

[7] = test system: barnyard grass; assay: Test Example 3: herbicidal effect by foliage application, Wagner pot (Table 18, symbol H); assay type: in vivo, barnyard grass (Echinochloa crus-galli); conditions: for herbicidal effect on H: barnyard grass: amount of applied herbicide 320 g/ha
Outline: (§3)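 Plants were sown in alluvial soil held under 0.1–0.5 cm standing water and grown 14 days in a greenhouse at 25–30 °C. An emulsifiable formulation, water-diluted to the set dose, was then sprayed onto the foliage, and effects were scored three weeks later using previously defined criteria.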

[8] = test system: Chinese sprangletop; assay: Test Example 3: herbicidal effect by foliage application, Wagner pot (Table 18, symbol D); assay type: in vivo, chinese sprangletop (Leptochloa chinensis); conditions: for herbicidal effect on D: Chinese sprangletop: amount of applied herbicide 320 g/ha
Outline: as §3

[9] = test system: rice flat sedge; assay: Test Example 3: herbicidal effect by foliage application, Wagner pot (Table 18, symbol E); assay type: in vivo, rice flat sedge (Cyperus iria); conditions: for herbicidal effect on E: rice flat sedge: amount of applied herbicide 320 g/ha
Outline: as §3

[10] = test system: southern crabgrass; assay: Test Example 5: herbicidal effect by foliage application, plastic box (Table 20, symbol F); assay type: in vivo, southern crabgrass (Digitaria ciliaris); conditions: foliage application, three weeks after application; for F: southern crabgrass, herbicidal effect grade: 320 g/ha
Outline: (§4)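 Foliar spray test: emulsion formulation diluted in water to a set application rate, sprayed onto 14-day-old plants raised in diluvial soil at 25° C to 30° C under glass. Both herbicidal effect and crop effect rated visually three weeks later.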

[11] = test system: green foxtail; assay: Test Example 5: herbicidal effect by foliage application, plastic box (Table 20, symbol G); assay type: in vivo, green foxtail (Setaria viridis); conditions: foliage application, three weeks after application; for G: green foxtail, herbicidal effect grade: 320 g/ha
Outline: as §4

[12] = test system: barnyard grass; assay: Test Example 5: herbicidal effect by foliage application, plastic box (Table 20, symbol H); assay type: in vivo, barnyard grass (Echinochloa crus-galli); conditions: foliage application, three weeks after application; for H: barnyard grass, herbicidal effect grade: 320 g/ha
Outline: as §4

[13] = test system: wild oat; assay: Test Example 5: herbicidal effect by foliage application, plastic box (Table 20, symbol I); assay type: in vivo, wild oat (Avena fatua); conditions: foliage application, three weeks after application
Outline: as §4

[14] = test system: blackgrass; assay: Test Example 5: herbicidal effect by foliage application, plastic box (Table 20, symbol J); assay type: in vivo, blackgrass (Alopecurus myosuroides); conditions: foliage application, three weeks after application
Outline: as §4

[15] = test system: Italian ryegrass; assay: Test Example 5: herbicidal effect by foliage application, plastic box (Table 20, symbol K); assay type: in vivo, Italian ryegrass (Lolium multiflorum); conditions: foliage application, three weeks after application
Outline: as §4

[16] = test system: windgrass; assay: Test Example 5: herbicidal effect by foliage application, plastic box (Table 20, symbol L); assay type: in vivo, windgrass (Apera spica-venti); conditions: foliage application, three weeks after application
Outline: as §4

[17] = test system: velvetleaf; assay: Test Example 5: herbicidal effect by foliage application, plastic box (Table 20, symbol M); assay type: in vivo, velvetleaf (Abutilon theophrasti); conditions: foliage application, three weeks after application; for M: velvetleaf, herbicidal effect grade: 320 g/ha
Outline: as §4

[18] = test system: redroot pigweed; assay: Test Example 5: herbicidal effect by foliage application, plastic box (Table 20, symbol N); assay type: in vivo, redroot pigweed (Amaranthus retroflexus); conditions: foliage application, three weeks after application; for N: redroot pigweed, herbicidal effect grade: 320 g/ha
Outline: as §4

[19] = test system: lambsquarters; assay: Test Example 5: herbicidal effect by foliage application, plastic box (Table 20, symbol O); assay type: in vivo, lambsquarters (Chenopodium album); conditions: foliage application, three weeks after application; for O: lambsquarters, herbicidal effect grade: 320 g/ha
Outline: as §4

[20] = test system: chickweed; assay: Test Example 5: herbicidal effect by foliage application, plastic box (Table 20, symbol P); assay type: in vivo, common chickweed (Stellaria media); conditions: foliage application, three weeks after application
Outline: as §4

[21] = test system: persian speedwell; assay: Test Example 5: herbicidal effect by foliage application, plastic box (Table 20, symbol R); assay type: in vivo, Persian speedwell (Veronica persica); conditions: foliage application, three weeks after application
Outline: as §4

[22] = test system: southern crabgrass; assay: Test Example 4: herbicidal effect by soil treatment (Table 19, symbol F); assay type: in vivo, southern crabgrass (Digitaria ciliaris); conditions: amount of applied herbicide 320 g/ha
Outline: (§5)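 Herbicidal effect was rated 3 weeks after treatment, using the scoring criteria of an earlier test. The compound, formulated as an emulsion and diluted in water to a set herbicide amount, had been sprayed uniformly on soil over freshly sown seeds. Growth took place in a greenhouse at 25° C. to 30° C.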

[23] = test system: green foxtail; assay: Test Example 4: herbicidal effect by soil treatment (Table 19, symbol G); assay type: in vivo, green foxtail (Setaria viridis); conditions: amount of applied herbicide 320 g/ha
Outline: as §5

[24] = test system: barnyard grass; assay: Test Example 4: herbicidal effect by soil treatment (Table 19, symbol H); assay type: in vivo, barnyard grass (Echinochloa crus-galli); conditions: amount of applied herbicide 320 g/ha
Outline: as §5

[25] = test system: velvetleaf; assay: Test Example 4: herbicidal effect by soil treatment (Table 19, symbol M); assay type: in vivo, velvetleaf (Abutilon theophrasti); conditions: amount of applied herbicide 320 g/ha
Outline: as §5

[26] = test system: redroot pigweed; assay: Test Example 4: herbicidal effect by soil treatment (Table 19, symbol N); assay type: in vivo, redroot pigweed (Amaranthus retroflexus); conditions: amount of applied herbicide 320 g/ha
Outline: as §5

[27] = test system: lambsquarters; assay: Test Example 4: herbicidal effect by soil treatment (Table 19, symbol O); assay type: in vivo, lambsquarters (Chenopodium album); conditions: amount of applied herbicide 320 g/ha
Outline: as §5

Structure (SMILES)	herbicidal effect rating, A: late watergrass [4]	herbicidal effect rating, B: Japanese bulrush [5]	herbicidal effect rating, C: oval-leafed pondweed [6]	Herbicidal effect, A: late watergrass [1]	Herbicidal effect, B: Japanese bulrush [2]	Herbicidal effect, C: oval-leafed pondweed [3]	herbicidal effect on H: barnyard grass [7]	herbicidal effect on D: Chinese sprangletop [8]	herbicidal effect on E: rice flat sedge [9]	F: southern crabgrass, herbicidal effect grade [10]	G: green foxtail, herbicidal effect grade [11]	H: barnyard grass, herbicidal effect grade [12]	M: velvetleaf, herbicidal effect grade [17]	N: redroot pigweed, herbicidal effect grade [18]	O: lambsquarters, herbicidal effect grade [19]	also measured
CCCC(=O)Oc1c(C)nn(C)c(=O)c1-c1c(-c2ccc([Si](C)(C)C)cc2)sc2ccccc12 [1-154]	0 (Herbicidal rate of 5% or less (almost no effect))	2 (Herbicidal rate of 20% or more and less than 40%)	0 (Herbicidal rate of 5% or less (almost no effect))													Herbicidal effect on A: late watergrass (grade 0-5) ([1]; 320 g/ha applied herbicide): 2 (Herbicidal rate of 20% or more and less than 40%); Herbicidal effect on B: Japanese bulrush (grade 0-5) ([2]; 320 g/ha applied herbicide): 0 (Herbicidal rate of 5% or less (almost no effect)); Herbicidal effect on C: oval-leafed pondweed (grade 0-5) ([3]; 320 g/ha applied herbicide): 0 (Herbicidal rate of 5% or less (almost no effect)); herbicidal effect on H (barnyard grass), rating 0-5 ([7]; 320 g/ha): 2 (Herbicidal rate of 20% or more and less than 40%); herbicidal effect on D (Chinese sprangletop), rating 0-5 ([8]; 320 g/ha): 3 (Herbicidal rate of 40% or more and less than 70%); herbicidal effect on E (rice flat sedge), rating 0-5 ([9]; 320 g/ha): 2 (Herbicidal rate of 20% or more and less than 40%); F: southern crabgrass, herbicidal effect ([10]; AAH 320 g/ha): 0 (Herbicidal rate of 5% or less (almost no effect)); G: green foxtail, herbicidal effect ([11]; AAH 320 g/ha): 0 (Herbicidal rate of 5% or less (almost no effect)); H: barnyard grass, herbicidal effect ([12]; AAH 320 g/ha): 0 (Herbicidal rate of 5% or less (almost no effect)); I: wild oat, herbicidal effect ([13]; AAH 320 g/ha): 0 (Herbicidal rate of 5% or less (almost no effect)); J: blackgrass, herbicidal effect ([14]; AAH 320 g/ha): 0 (Herbicidal rate of 5% or less (almost no effect)); K: Italian ryegrass, herbicidal effect ([15]; AAH 320 g/ha): 0 (Herbicidal rate of 5% or less (almost no effect)); L: windgrass, herbicidal effect ([16]; AAH 320 g/ha): 0 (Herbicidal rate of 5% or less (almost no effect)); M: velvetleaf, herbicidal effect ([17]; AAH 320 g/ha): 0 (Herbicidal rate of 5% or less (almost no effect)); N: redroot pigweed, herbicidal effect ([18]; AAH 320 g/ha): 3 (Herbicidal rate of 40% or more and less than 70%); O: lambsquarters, herbicidal effect ([19]; AAH 320 g/ha): 4 (Herbicidal rate of 70% or more and less than 90%); P: chickweed, herbicidal effect ([20]; AAH 320 g/ha): 0 (Herbicidal rate of 5% or less (almost no effect)); R: persian speedwell, herbicidal effect ([21]; AAH 320 g/ha): 4 (Herbicidal rate of 70% or more and less than 90%)
CCCC(=O)Oc1c(CC)nn(C)c(=O)c1-c1c(-c2ccc(Cl)cc2)sc2ccc(F)cc12 [2-409]	2 (Herbicidal rate of 20% or more and less than 40%)	3 (Herbicidal rate of 40% or more and less than 70%)	3 (Herbicidal rate of 40% or more and less than 70%)	3 (Herbicidal rate of 40% or more and less than 70%)	3 (Herbicidal rate of 40% or more and less than 70%)	2 (Herbicidal rate of 20% or more and less than 40%)	5 (Herbicidal rate of 90% or more (almost completely withered))	4 (Herbicidal rate of 70% or more and less than 90%)	5 (Herbicidal rate of 90% or more (almost completely withered))	3 (Herbicidal rate of 40% or more and less than 70%)	4 (Herbicidal rate of 70% or more and less than 90%)	3 (Herbicidal rate of 40% or more and less than 70%)	5 (Herbicidal rate of 90% or more (almost completely withered))	5 (Herbicidal rate of 90% or more (almost completely withered))	4 (Herbicidal rate of 70% or more and less than 90%)	I: wild oat, herbicidal effect grade ([13]; 320 g/ha): 0 (Herbicidal rate of 5% or less (almost no effect)); J: blackgrass, herbicidal effect grade ([14]; 320 g/ha): 0 (Herbicidal rate of 5% or less (almost no effect)); K: Italian ryegrass, herbicidal effect grade ([15]; 320 g/ha): 1 (Herbicidal rate of 5% or more and less than 20%); L: windgrass, herbicidal effect grade ([16]; 320 g/ha): 0 (Herbicidal rate of 5% or less (almost no effect)); P: chickweed, herbicidal effect grade ([20]; 320 g/ha): 4 (Herbicidal rate of 70% or more and less than 90%); R: persian speedwell, herbicidal effect grade ([21]; 320 g/ha): 4 (Herbicidal rate of 70% or more and less than 90%)
COCCS(=O)(=O)c1ccc(-c2sc3ccc(F)cc3c2-c2c(O)c(C)nn(C)c2=O)cc1 [2-455]	3 (Herbicidal rate of 40% or more and less than 70%)	0 (Herbicidal rate of 5% or less (almost no effect))	0 (Herbicidal rate of 5% or less (almost no effect))	3 (Herbicidal rate of 40% or more and less than 70%)	0 (Herbicidal rate of 5% or less (almost no effect))	0 (Herbicidal rate of 5% or less (almost no effect))	5 (Herbicidal rate of 90% or more (almost completely withered))	2 (Herbicidal rate of 20% or more and less than 40%)	0 (Herbicidal rate of 5% or less (almost no effect))	4 (Herbicidal rate of 70% or more and less than 90%)	3 (Herbicidal rate of 40% or more and less than 70%)	4 (Herbicidal rate of 70% or more and less than 90%)	4 (Herbicidal rate of 70% or more and less than 90%)	5 (Herbicidal rate of 90% or more (almost completely withered))	3 (Herbicidal rate of 40% or more and less than 70%)	herbicidal effect, F: southern crabgrass [22]: 4 (Herbicidal rate of 70% or more and less than 90%); herbicidal effect, G: green foxtail [23]: 4 (Herbicidal rate of 70% or more and less than 90%); herbicidal effect, H: barnyard grass [24]: 0 (Herbicidal rate of 5% or less (almost no effect)); herbicidal effect, M: velvetleaf [25]: 1 (Herbicidal rate of 5% or more and less than 20%); herbicidal effect, N: redroot pigweed [26]: 4 (Herbicidal rate of 70% or more and less than 90%); herbicidal effect, O: lambsquarters [27]: 3 (Herbicidal rate of 40% or more and less than 70%)
